Reference: US20240398764A1, “METHODS OF TREATING DISEASES ASSOCIATED WITH SENESCENT CELL ACCUMULATION” (University of Florida Research Foundation, Incorporated, priority 2021, published 2024)

Key:
[1] = system: normal non-senescent HUVEC (Non-SnC HUVEC); test: Viability of Non-SnC HUVEC; assay type: cell-based, human; conditions: 72 hr incubation; vs ABT263
Description: (§1) FIGS. 3A to 3B depicts viability of non-SnC human umbilical vein endothelial cells (HUVEC) and IR-induced SnC HUVEC treated with varying concentrations of ABT263 (FIG. 3A) or 753b (FIG. 3B). FIGS. 3C to 3D depict viability of non-SnC renal epithelial cells (REC), IR-induced SnC REC, and replicative senescent REC treated with varying concentrations of ABT263 (FIG. 3C) or 753b (FIG. 3D).
(§2) The viability of Non-SnC HUVEC, Non-SnC REC, IR-SnC HUVEC, IR-SnC REC, and Rep-SnC REC was measured 72 hr after they were incubated with increasing concentrations of 753b or ABT263 compared to cells/platelets with vehicle.

[2] = system: normal non-senescent WI-38 fibroblast cells (Non-SnCs); test: Viability of non-senescent WI-38 fibroblast cells; assay type: cell-based; conditions: 72 hr incubation; vs ABT263
From the text: (§3) FIG. 2A depicts immunoblots showing degradation of Bcl-xl and Bcl-2 in non-senescent WI-38 fibroblast cells (Non-SnCs) treated with varying concentrations of 753b. 3-actin was used as a loading control. FIG. 2B depicts viability of Non-SnCs treated with varying concentrations of 753b or ABT263. FIG. 2C depicts immunoblots showing degradation of Bcl-xl and Bcl-2 in ionizing radiation-induced senescent WI-38 fibroblast cells (IR-SnCs) treated with varying concentrations of 753b. 3-actin was used as a loading control. FIG. 2D depicts viability of IR-SnCs treated with varying concentrations of 753b or ABT263. FIG. 2E depicts immunoblots showing degradation of Bcl-xl and Bcl-2 in human platelets treated with varying concentrations of 753b. FIG. 2F depicts viability of human platelets treated with varying concentrations of 753b or ABT263.
(§4) The potency of 753b in degrading Bcl-xl/2 was evaluated by immunoblots after the cells or platelets were treated with different concentrations of 753b for 16 h ([…]). 753b is more cytotoxic to IR-SnCs but less toxic to Non-SnCs and platelets. The viability of Non-SnCs, IR-SnCs and platelets was measured 72 hr (Non-SnCs and IR-SnCs) and 48 hr (platelets) after they were incubated with increasing concentrations of 753b or ABT263 compared to cells/platelets with vehicle.

Bcl-xl [3] = target: Bcl-xl (Homo sapiens, UniProt Q07817); test: Immunoblot of Bcl-xl degradation in human platelets; assay type: cell-based; parameters: endogenous in cells; host or cells: human platelets; conditions: different concentrations, 16 h
Chain of Bcl-xl (Q07817 whole entry): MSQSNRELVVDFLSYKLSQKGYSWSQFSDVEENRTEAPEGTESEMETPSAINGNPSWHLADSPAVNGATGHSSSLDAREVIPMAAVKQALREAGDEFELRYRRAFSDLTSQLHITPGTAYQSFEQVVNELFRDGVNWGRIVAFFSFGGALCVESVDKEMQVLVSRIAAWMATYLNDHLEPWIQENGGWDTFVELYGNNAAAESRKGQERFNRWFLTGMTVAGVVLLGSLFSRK
From the text: as §3, §4

[4] = system: ionizing radiation (IR) induced senescent WI-38 fibroblast cells (IR-SnCs); test: Viability of IR-induced senescent WI-38 fibroblast cells; assay type: cell-based; conditions: 72 hr incubation; vs ABT263
From the text: as §3, §4

[5] = Body conditions and insulin tolerance test in the STAM model; assay type: in vivo, C57BL6 mice; conditions: STZ/HFD mice; 5 mg/kg twice a week IP; postnatal day 150
Description: FIG. 8A is an image showing body condition of STZ/HFD mice treated with vehicle control or 753b. FIG. 8B depicts blood glucose (mg/dL) levels versus time after intraperitoneal injection of insulin in STZ/HFD mice treated with vehicle control or 753b. Data were means±SD from 5 mice per group. *p<0.05.
(§5) Experimental design: C57BL6 mice were injected with Streptozotocin (STZ) at postnatal day 2 to induce diabetes and then fed with HFD from postnatal day 30 till the end of the experiments (FIG. 5). Half of the mice started receiving vehicle and the others receiving 753b (5 mg/kg) treatment on postnatal day 45 twice a week by IP injection till the end of the experiments. A group of the mice were euthanized at postnatal day 90 (or day 45 after the initiation of the treatment) for analysis of senescent cell accumulation and steatosis. Another group of the mice were euthanized at postnatal day 150 (or day 105 after the initiation of the treatment) for analysis of liver fibrosis and cancer.
753b administration improves body conditions and ameliorates the development of insulin resistance in the STAM model. All the analyses were done in mice at postnatal day 150 (p150 or 105 days after treatment).

[6] = system: IR-induced senescent human umbilical vein endothelial cells (IR-SnC HUVEC); test: Viability of IR-SnC HUVEC; assay type: cell-based; conditions: 72 hr incubation; vs ABT263
Description: as §1, §2

[7] = Hepatic fat accumulation in the STAM model (oil red staining, hepatic triglyceride); assay type: in vivo, C57BL6 mice; conditions: STZ/HFD mice; 5 mg/kg twice a week IP; postnatal day 90
Description: Scale bar: […]. FIG. 7B depicts percentage of oil red^+ area/field of the images depicted in FIG. 7A. Values represented means±SD. *p<0.05. […] Values represented means±SD. *p<0.05.
as §5
753b administration represses hepatic fat accumulation in the STAM model. The liver tissues were collected from mice at postnatal day 90 (p90 or 45 days after treatment) for the analyses. […] Quantification of oil red stained images was performed from 5 livers per group (FIG. 7B). […] Quantification was performed from 5 livers per group and was expressed as means±SD.

[8] = system: senescent cells induced by STZ/HFD in the liver; test: Senescent cell clearance in livers of STZ/HFD mice (p16/p21 mRNA, SA-β-gal staining); assay type: in vivo, C57BL6 mice; conditions: 5 mg/kg twice a week IP
Description: (§6) GAPDH was used as a loading control. FIG. 6B depicts the relative expression of p16 and p21 at mRNA levels in the livers of STZ/HFD mice treated with 753b or vehicle control. *p<0.05. FIGS. 6C to 6D show senescence-associated beta-galactosidase (SA-β-gal) stained livers of STZ/HFD mice treated with vehicle control (FIG. 6C) or 753b (FIG. 6D). Scale bar: […].
as §5
(§7) 753b effectively clears senescent cells induced by STZ/HFD in the liver. The liver tissues were collected from mice at postnatal day 90 (p90 or 45 days after treatment) for the analyses. […] Data were means±SD of triplicate experiments.

Bcl-xL [9] = target: T1, Bcl-xL (Mus musculus, UniProt Q64373); test: Bcl-xL level in livers of STZ/HFD mice (Western blotting); assay type: in vivo, C57BL6 mice; conditions: 5 mg/kg twice a week IP, postnatal day 90, vs vehicle
T1 construct: Western blot of Bcl-xl levels in the livers of STZ/HFD mice treated with 753b or vehicle control; from tissue; host or cells: liver of C57BL6 mice (STZ plus high fat diet)
T1 sequence (Q64373 whole entry): as the sequence (Q07817 whole entry) above, with G40E, S43A, M45R, A168S, E193D counted along it
Description: as §6, §5, §7

Bcl-xl degradation in human platelets (Bcl-xl [3]): not in human platelets
Bcl-xL accumulation in the livers (Bcl-xL [9]): reduced Bcl-xL accumulation
Structure (SMILES): Cc1ncsc1-c1ccc([C@H](C)NC(=O)[C@@H]2C[C@@H](O)CN2C(=O)[C@@H](NC(=O)CCCCCCC(=O)N2CCN(C[C@]3(C)CCC(c4ccc(Cl)cc4)=C(CN4CCN(c5ccc(C(=O)NS(=O)(=O)c6ccc(N[C@H](CCN7CCOCC7)CSc7ccccc7)c(S(=O)(=O)C(F)(F)F)c6)cc5)CC4)C3)CC2)C(C)(C)C)cc1 [Compound 753b]
Toxicity (viability) to Non-SnC HUVEC compared with ABT263 [1]: less toxic
Toxicity (viability) to Non-SnCs compared with ABT263 [2]: less toxic
Senolytic potency (viability) against IR-SnCs compared with ABT263 [4]: more potent senolytic agent
Body conditions (dehydration and dampen hair) [5]: prevented the development of abnormal body conditions
Insulin resistance (intraperitoneal injected insulin tolerance test) [5]: prevented insulin resistance
Senolytic potency (viability) against IR-SnC HUVEC compared with ABT263 [6]: more potent senolytic agent
Hepatic fat accumulation (oil red staining) [7]: inhibited hepatic fat accumulation
Hepatic triglyceride level [7]: decreased levels of hepatic triglyceride
Senescent cell burden in the liver (SA-β-gal staining) ([8]; postnatal day 90): reduced senescent cell burden
p16 mRNA level in the liver ([8]; postnatal day 90, Q-RT-PCR): inhibited upregulation
p21 mRNA level in the liver ([8]; postnatal day 90, Q-RT-PCR): inhibited upregulation
